The results in this text go back to ChEMBL document CHEMBL5500370, “Discovery of potent and novel dual NAMPT/BRD4 inhibitors for efficient treatment of hepatocellular carcinoma” (Eur J Med Chem, 2024).

Activity calls are given as the source filed them. The calls are words filed in the database; no cut-off is given here.

For series [1], the system named is Hep 3B2. The experiment in a line: Induction of apoptosis in human Hep3B cells assessed as early apoptotic cells at 10 uM measured after 72 hrs by Annexin V-FITC/PI staining based flow cytometry (reference value: 2.13 %). The format is functional. In general terms: In flow cytometry, cells or beads pass a laser one at a time.
The next series has as its system Huh-7. The experiment in a line: cells. As to conditions: Homo sapiens, Huh-7, 120 h.
The target in series [2] is Bromodomain testis-specific protein (Homo sapiens, UniProt Q58F21). Kind of series: Inhibition of BRDT BD1 (unknown origin) incubated for 120 mins by TR-FRET assay. In general terms: Time-resolved FRET reads energy transfer from a long-lived donor to a nearby acceptor.
Series [3] concerns Hep 3B2. Kind of series: Induction of apoptosis in human Hep3B cells assessed as early apoptotic cells at 1 uM measured after 72 hrs by Annexin V-FITC/PI staining based flow cytometry (reference value: 2.13 %). The format is functional.
For series [4], the system named is Hep 3B2. The experiment in a line: Induction of cell cycle arrest at S phase in human Hep3B cells at 5 uM measured after 72 hrs by PI/RNase staining based flow cytometry (reference value: 31.90 %). The format is functional.
Series [5] can be described thus: Toxicity in BALB/c nude mouse xenografted with human HCCLM3 cells assessed as body weight loss at 40 to 80 mg/kg, ip for 27 days. The format is organism-based. Conditions: in vivo, 648 h, dose 40-80 mg/kg, time 27 day.
The target of series [6] is T1, Nicotinamide phosphoribosyltransferase (Homo sapiens, UniProt P43490). Kind of series: Inhibition of NAMPT in human Hep3B cells assessed as decrease in NAD+ level at 10 uM measured after 72 hrs by WST-8 assay. The format is cell-based. Background: Tetrazolium dyes change colour on reduction, which living cells bring about.
Target sequence in this assay (P43490 whole entry, looked up): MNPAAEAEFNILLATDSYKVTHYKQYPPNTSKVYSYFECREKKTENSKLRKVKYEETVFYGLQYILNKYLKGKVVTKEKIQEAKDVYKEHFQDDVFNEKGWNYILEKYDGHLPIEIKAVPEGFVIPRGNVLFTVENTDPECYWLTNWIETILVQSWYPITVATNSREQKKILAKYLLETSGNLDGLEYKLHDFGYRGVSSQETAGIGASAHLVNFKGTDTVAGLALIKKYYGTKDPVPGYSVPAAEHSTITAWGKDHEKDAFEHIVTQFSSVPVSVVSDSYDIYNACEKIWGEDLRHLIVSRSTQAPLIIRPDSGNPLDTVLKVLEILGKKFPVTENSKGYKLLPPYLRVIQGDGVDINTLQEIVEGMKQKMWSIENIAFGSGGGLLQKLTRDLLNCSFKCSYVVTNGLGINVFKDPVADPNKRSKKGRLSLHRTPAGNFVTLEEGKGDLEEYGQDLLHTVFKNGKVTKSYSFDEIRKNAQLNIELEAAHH
In series [7] the test system is Hep 3B2. Kind of series: Induction of apoptosis in human Hep3B cells assessed as late apoptotic cells at 5 uM measured after 72 hrs by Annexin V-FITC/PI staining based flow cytometry (reference value: 1.05 %). The format is functional.
Series [8] has as its system Hep 3B2. Kind of series: Induction of cell cycle arrest at G0/G1 phase in human Hep3B cells at 5 uM measured after 72 hrs by PI/RNase staining based flow cytometry (reference value: 56.73 %). The format is functional.
Series [9] relates to Hep 3B2. Kind of series: Induction of apoptosis in human Hep3B cells assessed as viable cells at 1 uM measured after 72 hrs by Annexin V-FITC/PI staining based flow cytometry (reference value: 94.08 %). The format is functional. As to conditions: read-out: Activity.
Series [10] concerns the target T1, Nicotinamide phosphoribosyltransferase. The experiment in a line: Inhibition of recombinant NAMPT (unknown origin) by fluorescence based assay.
Target sequence in this assay (P43490 whole entry): as the sequence (P43490 whole entry, looked up) above
In series [11] the target is Bromodomain-containing protein 4 (Homo sapiens, UniProt O60885). The experiment in a line: Inhibition of BRD4 in human Hep3B cells assessed as decrease in YAP1 level at 1 to 10 uM measured after 72 hrs by immunoblot analysis. As to conditions: dose 1-10 µM. Format: cell-based.

Consider `Cc1sc2c(c1C)C(c1ccc(Cl)cc1)=N[C@@H](CC(=O)NCCCNC(=O)/C=C/c1cccnc1)c1nnc(C)n1-2`, for which the Activity with Hep 3B2 [1] is 18.89%; in the series with Hep 3B2 [3], 8.83%; in the series with Hep 3B2 [4] it was 20.57%; in series [5], “Non-Toxic”; in the series on Hep 3B2 [7], 6.24%; with Hep 3B2 [8], 71.08%. The IC50 with Huh-7 is 6490 nM; in series [2], 354 nM; in series [10], 35 nM. The inhibition entry in series [6] and in series [11] was “Active” each time. Moreover, the viability at 1 µM in the series with Hep 3B2 [9] stood at 83.9%.

Usually IC50 stands for the point on the concentration scale where inhibition reaches its midpoint.
